Test results published in PubChem BioAssay (NCI).
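Test compounds were applied to cells in 96-well plates for 48 hours at 5 doses. Definition used: TGI = concentration required for complete inhibition of growth.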

Experiments:
Test in all cases: inhibition of tumour cell growth, NCI panel, 48 h
[1] = system: HS 578T breast
[2] = system: A549 NSCLC
[3] = system: SNB-75 CNS
[4] = system: NCI-H460 lung
[5] = system: OVCAR-8 ovarian
[6] = system: UACC-62 melanoma
[7] = system: NCI-H226 lung
[8] = system: T-47D breast
[9] = system: SF-295 CNS
[10] = system: MDA-N
[11] = system: OVCAR-5 ovarian
[12] = system: SK-MEL-28 melanoma
[13] = system: EKVX NSCLC
[14] = system: SNB-19 CNS
[15] = system: SN12C renal
[16] = system: SK-MEL-2 melanoma
[17] = system: K-562 leukemia
[18] = system: CCRF-CEM leukemia
[19] = system: DU-145 prostate
[20] = system: PC-3 prostate
[21] = system: HCT-15 colon
[22] = system: SW-620 colon
[23] = system: SF-268 CNS
[24] = system: KM12 colon
[25] = system: HCT-116 colon
[26] = system: 786-0 renal
[27] = system: HL-60(TB) leukemia
[28] = system: SR leukemia
[29] = system: NCI-H522 lung
[30] = system: MDA-MB-435
[31] = system: MALME-3M melanoma
[32] = system: TK-10 renal
[33] = system: MDA-MB-231 breast
[34] = system: SF-539 CNS
[35] = system: MOLT-4 leukemia
[36] = system: LOX IMVI melanoma
[37] = system: BT-549 breast
[38] = system: CAKI-1 renal
[39] = system: COLO 205 colon
[40] = system: IGROV1 ovarian
[41] = system: HT29 colon
[42] = system: OVCAR-4 ovarian
[43] = system: HOP-62 NSCLC
[44] = system: UACC-257 melanoma
[45] = system: RPMI-8226 leukemia
[46] = system: U251 CNS
[47] = system: SK-MEL-5 melanoma
[48] = system: SK-OV-3 ovarian
[49] = system: OVCAR-3 ovarian
[50] = system: MCF7 breast
[51] = system: M14 melanoma
[52] = system: NCI/ADR-RES ovarian
[53] = system: UO-31 renal
[54] = system: A498 renal
[55] = system: RXF 393 renal
[56] = system: HCC-2998 colon
[57] = system: NCI-H23 lung
[58] = system: ACHN renal
[59] = system: HOP-92 NSCLC

O=C(NNC(=O)c1ccccc1O)c1cccs1
TGI [1]: > 100 µM | TGI [2]: > 100 µM | TGI [3]: > 100 µM | TGI [4]: > 100 µM | TGI [5]: > 100 µM | TGI [6]: > 100 µM | TGI [7]: > 100 µM | TGI [8]: > 100 µM | TGI [9]: > 100 µM | TGI [10]: > 100 µM | TGI [11]: > 100 µM | TGI [12]: > 100 µM | TGI [13]: > 100 µM | TGI [14]: > 100 µM | TGI [15]: > 100 µM | TGI [16]: > 100 µM | TGI [17]: > 100 µM | TGI [18]: > 100 µM | TGI [19]: > 100 µM | TGI [20]: > 100 µM | TGI [21]: > 100 µM | TGI [22]: > 100 µM | TGI [23]: > 100 µM | TGI [24]: > 100 µM | TGI [25]: > 100 µM | TGI [26]: > 100 µM | TGI [27]: > 100 µM | TGI [28]: > 100 µM | TGI [29]: 64 µM | TGI [30]: > 100 µM | TGI [31]: > 100 µM | TGI [32]: > 100 µM | TGI [33]: > 100 µM | TGI [34]: > 100 µM | TGI [35]: > 100 µM | TGI [36]: > 100 µM | TGI [37]: > 100 µM | TGI [38]: > 100 µM | TGI [39]: > 100 µM | TGI [40]: > 100 µM | TGI [41]: > 100 µM | TGI [42]: > 100 µM | TGI [43]: > 100 µM | TGI [44]: > 100 µM | TGI [45]: > 100 µM | TGI [46]: > 100 µM | TGI [47]: > 100 µM | TGI [48]: > 100 µM | TGI [49]: > 100 µM | TGI [50]: > 100 µM | TGI [51]: > 100 µM | TGI [52]: > 100 µM | TGI [53]: > 100 µM | TGI [54]: > 100 µM | TGI [55]: > 100 µM

O=c1oc2c(Cl)cc(Cl)cc2cc1-c1cn2c(n1)sc1ccccc12
TGI [1]: > 100 µM | TGI [2]: > 100 µM | TGI [3]: > 100 µM | TGI [4]: > 100 µM | TGI [5]: > 100 µM | TGI [6]: > 100 µM | TGI [8]: > 100 µM | TGI [9]: > 100 µM | TGI [10]: > 100 µM | TGI [11]: > 100 µM | TGI [12]: > 100 µM | TGI [13]: > 100 µM | TGI [14]: > 100 µM | TGI [15]: > 100 µM | TGI [16]: > 100 µM | TGI [17]: 53.3 µM | TGI [18]: 55.6 µM | TGI [19]: > 100 µM | TGI [20]: > 100 µM | TGI [21]: > 100 µM | TGI [22]: 92.4 µM | TGI [23]: > 100 µM | TGI [24]: > 100 µM | TGI [25]: > 100 µM | TGI [26]: > 100 µM | TGI [27]: 66.9 µM | TGI [28]: 53.1 µM | TGI [56]: 95 µM | TGI [29]: 88.8 µM | TGI [30]: > 100 µM | TGI [31]: > 100 µM | TGI [32]: > 100 µM | TGI [33]: > 100 µM | TGI [34]: > 100 µM | TGI [35]: 52 µM | TGI [36]: > 100 µM | TGI [37]: 87.4 µM | TGI [38]: > 100 µM | TGI [39]: > 100 µM | TGI [40]: > 100 µM | TGI [41]: > 100 µM | TGI [42]: > 100 µM | TGI [43]: > 100 µM | TGI [44]: > 100 µM | TGI [45]: 89.1 µM | TGI [46]: > 100 µM | TGI [57]: > 100 µM | TGI [58]: > 100 µM | TGI [47]: > 100 µM | TGI [48]: > 100 µM | TGI [49]: > 100 µM | TGI [59]: > 100 µM | TGI [50]: > 100 µM | TGI [51]: > 100 µM | TGI [52]: > 100 µM | TGI [53]: > 100 µM | TGI [55]: > 100 µM
